# According to patent US20260035360A1, “INHIBITORS OF MYC AND USES THEREOF” (Northwestern University, priority 2022, published 2026):
# Tests used:
# Assay type in all cases: cell-based
# PC3 cells = test: PC3 cell viability, CellTitreGlo Assay, 72 hrs; details: Homo sapiens, PC-3
# Description: (§1) Table 2. Biological data of selected compounds. For IC50 determination. PC3 and PC12 cells were treated with increasing concentrations of the indicated compounds for 72 hrs and cell viability assessed using CellTitreGlo Assay (Promega). For MYC and ATF4 protein level determination. PC3 cells were treated with the indicated compounds for 24 hr sand cell lysates processed for western blot with MYC and ATF4 antibodies using Actin as a control. Quantification analyses were performed by Biorad ChemiDoc Imager and Bio-Rad Image Lab software.
# MYC = target: T1, MYC (Homo sapiens, UniProt P01106); test: MYC protein level in PC3 cells by western blot, 24 hr; details: Actin control; for remaining activity at 10 µM: PC-3, 24 h, PC3, 24 h, read-out: Relative MYC protein at 10 μM (%, PC3 24 h)
# T1 construct: endogenous in cells; host or cells: PC3 cells
# Description: as §1
# ATF4 = ATF4 protein level in PC3 cells by western blot, 24 hr; details: Actin control; for fold induction at 10 µM: Homo sapiens, PC-3, PC3, 24 h, read-out: Relative ATF4 protein at 10 μM (fold change, PC3 24 h)
# Description: as §1
# T1 sequence (P01106 whole entry): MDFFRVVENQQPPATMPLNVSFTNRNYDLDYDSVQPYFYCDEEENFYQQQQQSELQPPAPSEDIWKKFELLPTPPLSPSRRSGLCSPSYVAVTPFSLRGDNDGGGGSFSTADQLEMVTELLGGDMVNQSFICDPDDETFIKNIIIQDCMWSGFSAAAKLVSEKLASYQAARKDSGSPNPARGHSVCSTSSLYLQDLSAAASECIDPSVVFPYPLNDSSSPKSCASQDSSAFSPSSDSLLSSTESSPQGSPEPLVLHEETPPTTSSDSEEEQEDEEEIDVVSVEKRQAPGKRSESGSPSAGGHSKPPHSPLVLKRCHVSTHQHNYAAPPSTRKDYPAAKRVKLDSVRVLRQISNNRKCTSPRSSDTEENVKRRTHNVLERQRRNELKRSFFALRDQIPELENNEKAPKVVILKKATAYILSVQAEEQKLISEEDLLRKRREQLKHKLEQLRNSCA
Structure (SMILES),IC50 (PC3 cells),remaining activity at 10 µM (MYC),"Relative MYC protein at 10 μM (%, PC3 24 h) (MYC)",fold induction at 10 µM (ATF4),"Relative ATF4 protein at 10 μM (fold change, PC3 24 h) (ATF4)"
COc1ccc(C2=N[C@@H](c3ccc(Cl)cc3)[C@@H](c3ccc(Cl)cc3)N2C(=O)N2CCN(CCCCCOc3ccc(-c4cc(C(F)(F)F)nn4C)c(O)c3-c3ccc(Cl)c(C(F)(F)F)c3)C(=O)C2)c(OC(C)C)c1 [NUCC-0226223],18.6 µM,91.5%,,5.5,
Cn1nc(C(F)(F)F)cc1-c1ccc(OCCCCCOCCOCCOc2cccc3c2C(=O)N(C2CCC(=O)NC2=O)C3=O)c(-c2ccc(Cl)c(C(F)(F)F)c2)c1O (stereo not drawn) [NUCC-0226224],10.1 µM,84.2%,,8.1,
Cc1ncsc1-c1ccc(CNC(=O)[C@@H]2C[C@@H](O)CN2C(=O)[C@@H](NC(=O)CCCCCCCCNC(=O)CCOCCCN(C(=O)c2ccc(Cl)c(C(F)(F)F)c2)c2ccc(-c3cc(C(F)(F)F)nn3C)c(O)c2)C(C)(C)C)cc1 [NUCC-0226226],5.1 µM,81.9%,,10.6,
Cc1ncsc1-c1ccc(CNC(=O)[C@@H]2C[C@@H](O)CN2C(=O)[C@@H](NC(=O)CCCCCCCCCCNC(=O)CCOCCCN(C(=O)c2ccc(Cl)c(C(F)(F)F)c2)c2ccc(-c3cc(C(F)(F)F)nn3C)c(O)c2)C(C)(C)C)cc1 [NUCC-0226227],22.3 µM,102%,,10.2,
Cc1ncsc1-c1ccc(CNC(=O)[C@@H]2C[C@@H](O)CC2C(=O)[C@@H](NC(=O)COCCNC(=O)CCOCCCN(C(=O)c2ccc(Cl)c(C(F)(F)F)c2)c2ccc(-c3cc(C(F)(F)F)nn3C)c(O)c2)C(C)(C)C)cc1 (stereo partly drawn) [NUCC-0226228],6 µM,38.1%,,23.1,
Cn1nc(C(F)(F)F)cc1-c1ccc(N(CCCOCCC(=O)NCCCCCCOc2cccc3c2C(=O)N(C2CCC(=O)NC2=O)C3=O)C(=O)c2ccc(Cl)c(C(F)(F)F)c2)cc1O (stereo not drawn) [NUCC-0226229],15.6 µM,56.4%,,16.4,
Cn1nc(C(F)(F)F)cc1-c1ccc(N(CCCOCCC(=O)NCCOCCOCCNc2cccc3c2C(=O)N(C2CCC(=O)NC2=O)C3=O)C(=O)c2ccc(Cl)c(C(F)(F)F)c2)cc1O (stereo not drawn) [NUCC-0226231],8.5 µM,53.6%,,14.3,
COCCCN(C(=O)c1ccc(C(F)(F)F)c(Cl)c1)c1ccc(-c2cc(C(F)(F)F)nn2C)c(O)c1 [NUCC-0226267],4.6 µM,46.4%,,8,
CC(C)Cc1ccc(CN(C(=O)c2ccc(Cl)c(C(F)(F)F)c2)c2ccc(-c3cc(C(F)(F)F)nn3C)c(O)c2)cc1 [NUCC-0226280],,45.2%,,10.3,
Cn1nc(C(F)(F)F)cc1-c1ccc(N(CCCOCCC(=O)NCCOCCNc2cccc3c2C(=O)N(C2CCC(=O)NC2=O)C3=O)C(=O)c2ccc(Cl)c(C(F)(F)F)c2)cc1O (stereo not drawn) [NUCC-0226288],6 µM,54.2%,,6.6,
Cn1nc(C(F)(F)F)cc1-c1ccc(N(CCCOCCC(=O)NCCOCCOCCOCCNc2cccc3c2C(=O)N(C2CCC(=O)NC2=O)C3=O)C(=O)c2ccc(Cl)c(C(F)(F)F)c2)cc1O (stereo not drawn) [NUCC-0226289],7.4 µM,120%,,7,
CC(=O)N[C@@H](C(=O)N1C[C@@H](O)C[C@@H]1C(=O)NCc1ccc(-c2scnc2C)cc1OCCOCCNC(=O)CCOCCCN(C(=O)c1ccc(Cl)c(C(F)(F)F)c1)c1ccc(-c2cc(C(F)(F)F)nn2C)c(O)c1)C(C)(C)C [NUCC-0226290],5.1 µM,27.4%,,2.9,
CN1C(=O)CCC(N2C(=O)c3cccc(NCCOCCOCCNC(=O)CCOCCCN(C(=O)c4ccc(Cl)c(C(F)(F)F)c4)c4ccc(-c5cc(C(F)(F)F)nn5C)c(O)c4)c3C2=O)C1=O (stereo not drawn) [NUCC-0226292],10.1 µM,65.1%,,1.1,
Cn1nc(C(F)(F)F)cc1-c1ccc(N(CCCOCCC(=O)NCCOCCOCCNc2ccc3c(c2)C(=O)N(C2CCC(=O)NC2=O)C3=O)C(=O)c2ccc(Cl)c(C(F)(F)F)c2)cc1O (stereo not drawn) [NUCC-0226293],4.7 µM,18.4%,,3.6,
Cn1nc(C(F)(F)F)cc1-c1ccc(OCc2ccc(OCCOCCNC(=O)COc3cccc4c3C(=O)N(C3CCC(=O)NC3=O)C4=O)cc2)c(-c2ccc(Cl)c(C(F)(F)F)c2)c1O (stereo not drawn) [NUCC-0226302],,79.4%,,2,
Cc1ncsc1-c1ccc(CNC(=O)[C@@H]2C[C@@H](O)CN2C(=O)[C@@H](NCCOCCNC(=O)CCOCCCOc2ccc(-c3cc(C(F)(F)F)nn3C)c(O)c2-c2ccc(Cl)c(C(F)(F)F)c2)C(C)(C)C)cc1 [NUCC-0226303],10.9 µM,24%,,1.6,
Cn1nc(C(F)(F)F)cc1-c1ccc(OCCCOCCC(=O)NCCOCCOCCNc2cccc3c2C(=O)N(C2CCC(=O)NC2=O)C3=O)c(-c2ccc(Cl)c(C(F)(F)F)c2)c1O (stereo not drawn) [NUCC-0226304],,170%,,4.6,
CC(C)Cc1ccc(COc2ccc(-c3cc(C(F)(F)F)nn3C)c(O)c2-c2ccc(Cl)c(C(F)(F)F)c2)cc1 [NUCC-0226305],8.4 µM,52.4%,,2.9,
C[C@@H](Oc1ccc(-c2cc(C(F)(F)F)nn2C)c(O)c1-c1ccc(Cl)c(C(F)(F)F)c1)c1ccccc1 [NUCC-0226433],4 µM,35%,,10.6,

# The next lines start with results.
IC50 (PC3 cells),remaining activity at 10 µM (MYC),"Relative MYC protein at 10 μM (%, PC3 24 h) (MYC)",Structure (SMILES),fold induction at 10 µM (ATF4),"Relative ATF4 protein at 10 μM (fold change, PC3 24 h) (ATF4)"
4.3 µM,20%,,C[C@H](Oc1ccc(-c2cc(C(F)(F)F)nn2C)c(O)c1-c1ccc(Cl)c(C(F)(F)F)c1)c1ccccc1 [NUCC-0226434],9.4,
5.4 µM,47.4%,,Cc1ccc([C@H](C)Oc2ccc(-c3cc(C(F)(F)F)nn3C)c(O)c2-c2ccc(Cl)c(C(F)(F)F)c2)cc1 [NUCC-0226435],4.7,
3.4 µM,30.3%,,Cc1ccc([C@@H](C)Oc2ccc(-c3cc(C(F)(F)F)nn3C)c(O)c2-c2ccc(Cl)c(C(F)(F)F)c2)cc1 [NUCC-0226436],11.8,
5.4 µM,50.7%,,CC(C)Cc1ccc([C@@H](C)Oc2ccc(-c3cc(C(F)(F)F)nn3C)c(O)c2-c2ccc(Cl)c(C(F)(F)F)c2)cc1 [NUCC-0226437],9,
5.3 µM,52.3%,,CC(C)Cc1ccc(C(C)Oc2ccc(-c3cc(C(F)(F)F)cn3C)c(O)c2-c2ccc(Cl)c(C(F)(F)F)c2)cc1 (stereo not drawn) [NUCC-0226438],3.7,
5.3 µM,25.4%,,Cn1nc(C(F)(F)F)cc1-c1ccc(OCc2ccc(Cl)cc2)c(-c2ccc(Cl)c(Cl)c2)c1O [NUCC-0226496],10.3,
24.8 µM,93%,,Cn1nc(C(F)(F)F)cc1-c1ccc(OCc2ccc(Cl)cc2)c(-c2ccc(Cl)cc2F)c1O [NUCC-0226497],5.9,
40.9 µM,67.8%,,Cn1nc(C(F)(F)F)cc1-c1ccc(OCc2ccc(Cl)cc2)c(-c2cccc(F)c2)c1O [NUCC-0226498],4.8,
4.6 µM,59.4%,,COc1ccc(-c2c(Cl)c(C(F)(F)F)nn2C)c(O)c1-c1ccc(Cl)c(C(F)(F)F)c1 [NUCC-0226501],9.3,
14.1 µM,122%,,Cn1nc(C(F)(F)F)cc1-c1ccc(NC(c2ccccc2)c2ccccc2)c(-c2ccc(Cl)c(C(F)(F)F)c2)c1O [NUCC-0226502],1.4,
,129%,,Cn1nc(C(F)(F)F)cc1-c1ccc(OCc2ccc(Cl)cc2)c(-c2ccc(F)cc2)c1O [NUCC-0226503],3,
7.3 µM,32.5%,,Cn1nc(C(F)(F)F)cc1-c1ccc(OCc2ccc(Cl)cc2)c(-c2ccc(F)c(F)c2)c1O [NUCC-0226504],5.2,
12.7 µM,67.5%,,Cn1nc(C(F)(F)F)cc1-c1ccc(N)c(-c2ccc(Cl)c(C(F)(F)F)c2)c1O [NUCC-0226520],1.1,
6.2 µM,50.8%,,CNc1ccc(-c2cc(C(F)(F)F)nn2C)c(O)c1-c1ccc(Cl)c(C(F)(F)F)c1 [NUCC-0226527],1.2,
3.88 µM,43.7%,,Cn1nc(C(F)(F)F)cc1-c1ccc(Cc2ccc(Cl)cc2)c(-c2ccc(Cl)c(C(F)(F)F)c2)c1O [NUCC-0226566],10.5,
3.59 µM,43.7%,,Cn1nc(C(F)(F)F)cc1-c1ccc(CCc2ccc(Cl)cc2)c(-c2ccc(Cl)c(C(F)(F)F)c2)c1O [NUCC-0226574],12,
,,103%,Cn1nncc1-c1ccc(OCc2ccc(Cl)cc2)c(-c2ccc(Cl)c(C(F)(F)F)c2)c1O [NUCC-0226656],,1.5 fold change
7.51 µM,56.6%,,CC(C)n1nc(C(F)(F)F)cc1-c1ccc(OCc2ccc(Cl)cc2)c(-c2ccc(Cl)c(C(F)(F)F)c2)c1O [NUCC-0226657],7.7,
,90.3%,,Cn1nncc1-c1ccc(OCc2ccc(Cl)cc2)c(-c2ccc(Cl)c(C(F)(F)F)c2)c1O [NUCC-0226659],1.5,
